Values joined by “and” are separate entries in the source; they are usually repeats but may differ in a detail not shown here. Equal entries are not always repeated. Numbers after ± are expanded uncertainties.

The values below come from the NIST ThermoML archive (doi:10.1016/j.jct.2017.12.011).

For the series the following is noted: Pendant drop shape.

For the compound `O` [water], the surface tension liquid-gas reads like this: (271.2 K) 76.43 ± 1.8 mN/m and 76.39 ± 1.9 mN/m; (274.2 K) 75.74 ± 1.8 mN/m and 75.89 ± 1.5 mN/m; (276.2 K) 75.11 ± 1.5 mN/m and 75.34 ± 1.9 mN/m; (278.2 K) 74.61 ± 2 mN/m and 74.98 ± 1.9 mN/m; (280.2 K) 74.5 ± 1.4 mN/m and 74.21 ± 1.3 mN/m.

Usually surface tension liquid-gas stands for the force per length acting along the surface.
